Source: paper PMC12525602, “Identification of Selective α-Glucosidase Inhibitors via Virtual Screening with Machine Learning” (Molecules, 2025)
Like-named read-outs stand apart in the source and are kept apart here.

Assays:
[1] = molecular target: α-amylase; parameters: method as in ref 14 (Lim et al. 2022); conditions: ref 14 (Lim et al. 2022); cited from earlier work
[2] = molecular target: α-glucosidase; parameters: method as in ref 14 (Lim et al. 2022); conditions: ref 14 (Lim et al. 2022); cited from earlier work
[3] = molecular target: T1, α-glucosidase (Saccharomyces cerevisiae, UniProt P53341); test: In vitro α-glucosidase activity assay (pNαGP, absorbance 405 nm); type: biochemical; conditions: for inhibition at 250 µM: read-out: inhibition of α-glucosidase
T1 construct: purchased Sigma-Aldrich Co. (St. Louis, MI, USA)
T1 sequence (P53341 whole entry): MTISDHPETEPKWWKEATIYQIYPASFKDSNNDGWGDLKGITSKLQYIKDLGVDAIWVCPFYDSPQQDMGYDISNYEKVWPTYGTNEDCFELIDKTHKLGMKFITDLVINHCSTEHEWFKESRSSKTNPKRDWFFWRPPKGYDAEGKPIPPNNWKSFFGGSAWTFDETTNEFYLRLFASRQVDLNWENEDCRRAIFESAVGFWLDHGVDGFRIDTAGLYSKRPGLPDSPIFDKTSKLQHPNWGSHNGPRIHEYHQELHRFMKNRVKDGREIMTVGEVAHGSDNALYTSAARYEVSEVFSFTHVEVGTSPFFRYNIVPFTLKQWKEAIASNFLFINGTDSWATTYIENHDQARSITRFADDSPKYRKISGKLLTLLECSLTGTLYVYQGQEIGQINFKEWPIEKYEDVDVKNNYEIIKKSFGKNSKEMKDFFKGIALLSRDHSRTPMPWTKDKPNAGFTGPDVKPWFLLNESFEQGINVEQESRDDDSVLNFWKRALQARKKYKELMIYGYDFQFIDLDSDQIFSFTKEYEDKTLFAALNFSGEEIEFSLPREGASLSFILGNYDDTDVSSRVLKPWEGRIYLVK
Experimental: (§1) The inhibitors used in this study were purchased from the ChemDiv website. Unless otherwise stated, all other reagents used in this experiment were analytically pure reagents purchased from Sigma-Aldrich Co. (St. Louis, MI, USA).
The in vitro α-glucosidase activity assay was determined spectrophotometrically as previously described with only minor modifications. A phosphate-buffer solution at pH 6.8 was configured to obtain 0.5 U/mL of α-glucosidase and 0.6 mM of […] (pNαGP). […] Gradient dilution with phosphate-buffer solution was performed to obtain sample solutions of different concentrations. First, different concentrations of compounds (10 µL), enzyme solution (40 µL) and potassium phosphate buffer (100 µL) were pre-incubated in a 96-well plate for 10 min at 37 °C. Then, 50 µL of substrate (pNαGP, 0.6 mM) was added to each microtiter well and incubated for 20 min at 37 °C, and the absorbance at 405 nm was measured to detect the change in enzyme activity.
The enzyme inhibitory activity of the tested compounds was calculated as follows: α−glucosidase inhibition rate%=Abs control−Abs sample/Abs control×100
(§2) The IC50 values of the tested compounds were calculated using nonlinear fitting (logit method).

[4] = molecular target: T2, α-amylase (Sus scrofa, UniProt P00690); test: In vitro α-amylase activity assay (G3-CNP, absorbance 405 nm); type: biochemical, porcine; parameters: inhibition of α-amylase: dose or concentration left out as unconfirmed; conditions: for inhibition of α-amylase: […] µM
T2 construct: α-amylase isolated from porcine pancreas; purchased Sigma-Aldrich Co. (St. Louis, MI, USA); host or cells: porcine pancreas
T2 sequence (P00690 16-511): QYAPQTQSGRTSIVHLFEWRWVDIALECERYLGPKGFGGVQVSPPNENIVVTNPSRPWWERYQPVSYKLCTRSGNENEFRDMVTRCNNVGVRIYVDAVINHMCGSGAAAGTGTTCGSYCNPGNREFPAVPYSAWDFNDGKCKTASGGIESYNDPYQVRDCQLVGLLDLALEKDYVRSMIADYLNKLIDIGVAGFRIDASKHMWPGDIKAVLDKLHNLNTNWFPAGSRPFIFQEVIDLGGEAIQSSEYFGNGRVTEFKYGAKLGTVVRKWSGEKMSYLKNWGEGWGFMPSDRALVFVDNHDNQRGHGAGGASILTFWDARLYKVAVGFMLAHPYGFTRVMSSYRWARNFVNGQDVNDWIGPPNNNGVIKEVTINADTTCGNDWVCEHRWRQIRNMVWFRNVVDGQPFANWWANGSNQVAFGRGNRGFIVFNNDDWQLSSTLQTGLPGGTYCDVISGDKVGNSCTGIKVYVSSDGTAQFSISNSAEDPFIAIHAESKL
Experimental: as §1
The in vitro α-amylase activity assay was determined spectrophotometrically as previously described with only minor modifications. A phosphate-buffer solution at pH 6.8 was configured to obtain α-amylase 5 U/mL and 2-chloro-4-nitrophenyl α-D-maltotrioside (G3-CNP) 0.6 mM. […] Gradient dilution with phosphate-buffer solution was performed to obtain sample solutions of different concentrations.
as §2

[5] = molecular target: T1, α-glucosidase; test: biochemical; type: biochemical
Experimental: To further investigate the inhibition kinetics of the candidate compounds, α-glucosidase activity was determined at different substrate concentrations. The Lineweaver-Burk expression method in Equation (1) was used to test the reaction of a series of compounds with the substrate pNαGP, and the values of maximum velocity (Vmax) and Michaelis-Menten constant (Km) were calculated.(1) 1/v=Km/Vmax1/[S]+1/Vmax where Vmax and Km are the maximum velocity of the enzyme and the Michaelis-Menten constant in the absence of inhibitor, respectively. [S] is the concentration of substrate and inhibitor.(2) Slope=Km/Vmax+Km/Vmax·KiI where v is the initial reaction rate, Vmax is the maximum initial reaction rate, [I] is the concentration of […], and Km is the Michaelis-Menten constant.

[6] = molecular target: T1, α-glucosidase; test: Fluorescence quenching experiment (Stern-Volmer); type: binding; conditions: for Kd: Ka (binding constant); for Kq (bimolecular quenching constant): given as number×10 with exponent 12
Experimental: The fluorescence quenching experiment was modified somewhat based on previous studies. Fluorescence was determined by titrating α-glucosidase (1.0 mL, 2 U/mL) with different concentrations of inhibited solutions (1.0 mL, 0–200 mM) and left to equilibrate for 5 min. […] Fluorescence burst analysis was performed based on the Stern-Volmer (3) equation.(3) F0/F=1+Kqτ0Q=1+KsvQ
F and F0 are the fluorescence intensities with and without inhibitor, respectively, Ksv is the Stern-Volmer bursting constant, Kq is the bimolecular bursting constant, and [Q] is the concentration of inhibitor.
When the bursting mode conforms to static bursting, the binding constant Ka and the number of binding sites for each enzyme can be calculated from Equation (4).(4) logF0−F/F=logKa+nlogQ
Ka is the binding constant and n is the number of binding sites.
The thermodynamic parameters ∆H, ∆S, and ∆G denote the change in heat, entropy, and free energy, respectively.

[7] = molecular target: T1, α-glucosidase; test: Synchronous fluorescence spectroscopy (RSQF); type: binding
Experimental: Changes in the microenvironment of tyrosine (Tyr) and tryptophan (Trp) residue fluorophores were detected simultaneously. The excitation and emission wavelength intervals were set to 15 nm and 60 nm, respectively, and the synchronized fluorescence spectra from 260 to 320 nm were determined. The synchronized fluorescence burst ratio (RSFQ) was calculated as follows:(7) RSQF=1−F/F0

[8] = molecular target: α-amylase; parameters: method as in ref 15 (Sun et al. 2017); conditions: ref 15 (Sun et al. 2017); cited from earlier work
[9] = molecular target: α-glucosidase; parameters: method as in ref 15 (Sun et al. 2017); conditions: ref 15 (Sun et al. 2017); cited from earlier work
[10] = tested on: α-glucosidase; conditions: activity label of the modeling dataset, sheet Table S5; 1 = active, 0 = inactive; cited from earlier work

## O=c1c(O)c(-c2ccc(O)c(O)c2)oc2ccccc12 [3′,4′-dihydroxyflavonol]
[1]
  IC50: 119 µM
[2]
  IC50: 34.3 µM

## O=[N+]([O-])c1ccccc1C1Oc2ccccc2C2CC(c3ccccc3)=NN21 (stereo not shown) [K411]
[3]
  IC50: 67.8 ± 2.18 µM
  inhibition at 250 µM: ~100%
[4]
  IC50: > 500 µM
  inhibition of α-amylase: minimal inhibition
[5]
  Ki: 61.3 ± 14.4 µM
  Type of inhibition: Competitive
[5]; [I] 7.5 μM
  Vmax: 8.94±0.06 ×10-1µM/min
[5]; [I] 15 μM
  Vmax: 8.85±0.02 ×10-1µM/min
[5]; [I] 30 μM
  Vmax: 8.62±0.04 ×10-1µM/min
[5]; [I] 50 μM
  Vmax: 8.81±0.03 ×10-1µM/min
[5]; [I] 70 μM
  Vmax: 8.43±0.04 ×10-1µM/min
[6]; T 300.15 K
  Kd: 1.98 µM
  Ksv (quenching constant): 10.50 ±0.01 104 /M
  n (number of binding sites): 1.15
[6]; T 305.15 K
  Kd: 2.07 µM
  Ksv (quenching constant): 7.67 ±0.01 104 /M
  n (number of binding sites): 1.17
  Kq (bimolecular quenching constant): 7.67 ×10^12 (M·S)-1
[6]; T 310.15 K
  Kd: 3.91 µM
  Ksv (quenching constant): 5.51 ±0.01 104 /M
  n (number of binding sites): 1.15
  Kq (bimolecular quenching constant): 5.51 ×10^12 (M·S)-1
[7]
  RSQF values, Trp (Δλ = 60 nm) versus Tyr (Δλ = 15 nm): significantly higher

## O=C1Nc2ccc(Br)cc2/C1=C\c1nc2ccccc2c(=O)n1-c1ccc(C(=O)O)cc1 [K413]
[3]
  IC50: 66.3 ± 7.17 µM
  inhibition at 250 µM: ~100%
[4]
  IC50: > 500 µM
  inhibition of α-amylase: minimal inhibition
[5]
  Ki: 59.7 ± 10.6 µM
  Type of inhibition: Competitive
[5]; [I] 7.5 μM
  Vmax: 11.41±0.04 ×10-1µM/min
[5]; [I] 15 μM
  Vmax: 11.35±0.08 ×10-1µM/min
[5]; [I] 30 μM
  Vmax: 10.92±0.06 ×10-1µM/min
[5]; [I] 50 μM
  Vmax: 10.84±0.07 ×10-1µM/min
[6]; T 300.15 K
  Kd: 1.59 µM
  Ksv (quenching constant): 11.46 ±0.01 104 /M
  n (number of binding sites): 1.17
[6]; T 305.15 K
  Kd: 1.62 µM
  Ksv (quenching constant): 7.99 ±0.01 104 /M
  n (number of binding sites): 1.20
  Kq (bimolecular quenching constant): 7.99 ×10^12 (M·S)-1
[6]; T 310.15 K
  Kd: 3.94 µM
  Ksv (quenching constant): 6.87 ±0.01 104 /M
  n (number of binding sites): 1.14
  Kq (bimolecular quenching constant): 6.87 ×10^12 (M·S)-1
[7]
  RSQF values, Trp (Δλ = 60 nm) versus Tyr (Δλ = 15 nm): significantly higher

## COc1ccc(-c2nn(-c3ccccc3)c(C)c2-c2cc(C#N)c(C#N)cc2O)cc1 [K802]
[3]
  IC50: 74.7 ± 4.1 µM
  inhibition at 250 µM: ~100%
[4]
  IC50: > 500 µM
  inhibition of α-amylase: minimal inhibition
[5]
  Type of inhibition: Competitive
[5]; [I] 7.5 μM
  Vmax: 9.17±0.04 ×10-1µM/min
[5]; [I] 15 μM
  Vmax: 9.83±0.06 ×10-1µM/min
[5]; [I] 30 μM
  Vmax: 9.35±0.03 ×10-1µM/min
[5]; [I] 50 μM
  Vmax: 9.62±0.05 ×10-1µM/min
[5]; [I] 70 μM
  Vmax: 9.48±0.02 ×10-1µM/min
[6]; T 300.15 K
  Kd: 2.51 µM
  Ksv (quenching constant): 0.59 ±0.02 104 /M
  n (number of binding sites): 1.16
  Kq (bimolecular quenching constant): 0.59 ×10^12 (M·S)-1
[6]; T 305.15 K
  Kd: 19.6 µM
  Ksv (quenching constant): 0.42 ±0.04 104 /M
  n (number of binding sites): 0.99
  Kq (bimolecular quenching constant): 0.42 ×10^12 (M·S)-1
[6]; T 310.15 K
  Kd: 23.8 µM
  Ksv (quenching constant): 0.39 ±0.02 104 /M
  n (number of binding sites): 0.79
  Kq (bimolecular quenching constant): 0.39 ×10^12 (M·S)-1
[7]
  RSQF values, Trp (Δλ = 60 nm) versus Tyr (Δλ = 15 nm): significantly higher

## O=C(/C=C/c1ccc(O)cc1)c1c(O)cc(O)cc1O [chalconaringenin]
[8]
  IC50: > 100 µM
[9]
  IC50: 20 µM

## CCOC(=O)c1c(SCC(=O)Nc2ccccc2)nnc(-c2ccccc2)c1-c1ccccc1 [compound 292]
[10]
  activity: 1

## CC(C)=CCn1c(=O)oc2c(C(=O)/C=C/c3ccc(O)c(F)c3)cccc21 [compound 293]
[10]
  activity: 1

## Cc1cc2ncc(-c3ccccc3)nc2cc1C [compound 294]
[10]
  activity: 1

## Clc1ccc(-c2cnc3ccccc3n2)cc1Cl [compound 295]
[10]
  activity: 1

## CCOC(=O)c1cc(-c2ccc(Br)cc2)n2nc3ccccc3c2n1 [compound 296]
[10]
  activity: 1

## Cn1ccnc1SC(=O)c1ccc(-c2cccc(Cl)c2)o1 [compound 298]
[10]
  activity: 1

## Cc1ccc(-n2cc(/C=N\NC(=O)Nc3ccccc3)c(-c3ccc([N+](=O)[O-])cc3)n2)cc1 [compound 299]
[10]
  activity: 1
